The values below come from US20080234262A1 (Wyeth, priority 2007, published 2008).

Like-named read-outs stand apart in the source and are kept apart here.

The test system of one assay is breast line MDA468. Description: In vitro cell culture growth assay (MTS), MDA468. The assay is classed as cell-based, human. Conditions: MDA468 cells, three days after drug treatment. An outline of the steps:
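Cells were plated and, one day later, exposed to inhibitors for three days; viable cell density was then measured by metabolic conversion of MTS dye, read as absorbance at 490 nm. Growth is expressed as percent of vehicle-treated control cells on the same plate.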

A further assay has as its system prostate line LNCap. Put plainly: In vitro cell culture growth assay (MTS), LNCap. The assay is classed as cell-based, human. The settings on record: LNCap cells, three days after drug treatment.
For a further assay, the target named is PI3K (Homo sapiens, UniProt P42336). Description: Fluorescence polarization assay for PI3K.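 Note: PI3K kinase reaction on PIP2 with ATP, 30-60 min, product sensed by GST-GRP with red probe in fluorescence polarization (mP), controls without enzyme and at zero time.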 The assay is classed as biochemical. On the technique in general: In fluorescence polarisation assays a small probe gives low polarisation when free and higher when bound to something large.
PI3K, sequence (P42336 whole entry): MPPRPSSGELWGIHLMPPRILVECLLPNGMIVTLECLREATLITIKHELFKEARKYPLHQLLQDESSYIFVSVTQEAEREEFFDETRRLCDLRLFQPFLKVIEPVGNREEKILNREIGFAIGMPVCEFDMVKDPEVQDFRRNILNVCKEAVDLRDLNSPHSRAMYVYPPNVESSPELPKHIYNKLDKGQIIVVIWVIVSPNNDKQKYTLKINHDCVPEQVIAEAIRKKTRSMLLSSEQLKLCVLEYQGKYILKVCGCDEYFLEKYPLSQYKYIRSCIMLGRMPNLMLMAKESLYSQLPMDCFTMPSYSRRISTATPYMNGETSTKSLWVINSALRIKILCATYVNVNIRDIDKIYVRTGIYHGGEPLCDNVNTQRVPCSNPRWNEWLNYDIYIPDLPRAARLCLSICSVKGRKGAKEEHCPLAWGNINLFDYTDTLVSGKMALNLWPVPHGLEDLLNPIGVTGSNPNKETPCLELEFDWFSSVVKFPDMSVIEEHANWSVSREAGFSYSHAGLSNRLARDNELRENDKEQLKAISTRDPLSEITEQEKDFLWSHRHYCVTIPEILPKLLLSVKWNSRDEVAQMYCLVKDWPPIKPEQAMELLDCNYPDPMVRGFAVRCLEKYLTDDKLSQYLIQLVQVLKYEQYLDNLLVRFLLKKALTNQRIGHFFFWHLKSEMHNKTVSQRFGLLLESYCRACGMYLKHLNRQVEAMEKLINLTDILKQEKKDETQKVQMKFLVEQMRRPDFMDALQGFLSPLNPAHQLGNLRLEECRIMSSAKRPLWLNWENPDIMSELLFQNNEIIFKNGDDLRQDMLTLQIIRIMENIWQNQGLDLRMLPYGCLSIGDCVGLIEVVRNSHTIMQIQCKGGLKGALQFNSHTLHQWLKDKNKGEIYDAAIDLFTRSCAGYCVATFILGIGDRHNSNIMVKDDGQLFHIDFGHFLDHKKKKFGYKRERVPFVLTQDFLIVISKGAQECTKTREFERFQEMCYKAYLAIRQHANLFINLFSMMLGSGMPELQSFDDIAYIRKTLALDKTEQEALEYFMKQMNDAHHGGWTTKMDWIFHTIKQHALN
PI3K, sequence (P27986 whole entry partner): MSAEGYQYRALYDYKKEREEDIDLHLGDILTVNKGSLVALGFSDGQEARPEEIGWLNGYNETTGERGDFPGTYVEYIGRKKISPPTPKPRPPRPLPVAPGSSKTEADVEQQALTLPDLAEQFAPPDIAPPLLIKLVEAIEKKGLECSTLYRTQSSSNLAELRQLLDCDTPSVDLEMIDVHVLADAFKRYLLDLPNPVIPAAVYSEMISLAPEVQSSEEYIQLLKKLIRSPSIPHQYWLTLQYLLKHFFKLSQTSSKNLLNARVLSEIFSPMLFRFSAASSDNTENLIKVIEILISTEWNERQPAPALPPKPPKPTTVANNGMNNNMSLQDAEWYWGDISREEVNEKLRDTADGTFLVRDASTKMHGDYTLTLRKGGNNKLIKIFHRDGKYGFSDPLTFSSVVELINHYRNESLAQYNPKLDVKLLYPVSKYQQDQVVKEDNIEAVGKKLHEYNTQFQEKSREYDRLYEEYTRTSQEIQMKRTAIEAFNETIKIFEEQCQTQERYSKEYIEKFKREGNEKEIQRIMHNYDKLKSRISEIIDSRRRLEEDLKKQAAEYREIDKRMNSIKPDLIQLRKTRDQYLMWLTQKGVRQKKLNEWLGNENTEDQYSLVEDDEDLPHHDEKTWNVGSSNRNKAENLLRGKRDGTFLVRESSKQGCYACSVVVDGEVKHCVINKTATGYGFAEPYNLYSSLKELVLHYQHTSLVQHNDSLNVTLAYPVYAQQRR

Take `O=C(Cc1ccccc1)N1CCC(n2ncc3c(N4CCOCC4)nc(-c4ccc5[nH]ccc5c4)nc32)CC1` [Compound 492, 6-(1H-indol-5-yl)-4-morpholin-4-yl-1-[1-(phenylacetyl)piperidin-4-yl]-1H-pyrazolo[3,4-d]pyrimidine]: the IC50 (commonly the concentration at which inhibition is half-maximal) was 3000 nM in the assay on breast line MDA468 (Homo sapiens, 72 h); 700 nM in the assay with prostate line LNCap (Homo sapiens, LNCaP, 72 h); 692 nM at PI3K (PI3Kα; read-out: PI3Kα IC50).
Turning to `O=C(Oc1ccccc1)N1CCC(n2ncc3c(N4CCOCC4)nc(-c4ccc5[nH]ccc5c4)nc32)CC1` [Compound 493, phenyl 4-[6-(1H-indol-5-yl)-4-morpholin-4-yl-1H-pyrazolo[3,4-d]pyrimidin-1-yl]piperidine-1-carboxylate], the values for the IC50 with breast line MDA468, with prostate line LNCap and on PI3K (read-out: PI3Kα IC50; PI3Kα) were 4300 nM, 1300 nM and 535 nM, respectively.
For `COC(=O)N1CCC(n2ncc3c(N4CCOCC4)nc(-c4ccc5[nH]ccc5c4)nc32)CC1` [Compound 494, methyl 4-[6-(1H-indol-5-yl)-4-morpholin-4-yl-1H-pyrazolo[3,4-d]pyrimidin-1-yl]piperidine-1-carboxylate], the IC50 in the assay on breast line MDA468 (Homo sapiens, 72 h) was found to be 2050 nM; in the assay on prostate line LNCap (Homo sapiens, LNCaP, 72 h), 750 nM; at PI3K (PI3Kα; read-out: PI3Kα IC50), 3300 nM.
The corresponding values for `NC(=O)CN1CCC(n2ncc3c(N4CCOCC4)nc(-c4ccc5[nH]ccc5c4)nc32)CC1` [Compound 495, 2-{4-[6-(1H-indol-5-yl)-4-morpholin-4-yl-1H-pyrazolo[3,4-d]pyrimidin-1-yl]piperidin-1-yl}acetamide] are 2800 nM, 800 nM and 2660 nM.
On the same counts, the results for `OCCN1CCC(n2ncc3c(N4CCOCC4)nc(-c4ccc5[nH]ccc5c4)nc32)CC1` [Compound 496, 2-{4-[6-(1H-indol-5-yl)-4-morpholin-4-yl-1H-pyrazolo[3,4-d]pyrimidin-1-yl]piperidin-1-yl}ethanol] are 3000 nM, 1800 nM and 3990 nM.
On the same counts, the results for `OCCCN1CCC(n2ncc3c(N4CCOCC4)nc(-c4ccc5[nH]ccc5c4)nc32)CC1` [Compound 497, 3-{4-[6-(1H-indol-5-yl)-4-morpholin-4-yl-1H-pyrazolo[3,4-d]pyrimidin-1-yl]piperidin-1-yl}propan-1-ol] are 3000 nM, 2500 nM and 7290 nM.
`CCCNC(=O)Nc1ccc(-c2nc(N3CCOCC3)c3cnn(C4CCN(Cc5ccccc5)CC4)c3n2)cc1` [Compound 500, 1-{4-[1-(1-benzylpiperidin-4-yl)-4-morpholin-4-yl-1H-pyrazolo[3,4-d]pyrimidin-6-yl]phenyl}-3-propylurea]: the IC50 amounted to 1500 nM in the assay on breast line MDA468 (Homo sapiens, 72 h); 220 nM in the assay with prostate line LNCap (Homo sapiens, LNCaP, 72 h); 341 nM at PI3K (PI3Kα; read-out: PI3Kα IC50).
The corresponding values for `O=C(NCCc1ccccc1)Nc1ccc(-c2nc(N3CCOCC3)c3cnn(C4CCN(Cc5ccccc5)CC4)c3n2)cc1` [Compound 505, 1-{4-[1-(1-benzylpiperidin-4-yl)-4-morpholin-4-yl-1H-pyrazolo[3,4-d]pyrimidin-6-yl]phenyl}-3-(2-phenylethyl)urea] are 20000 nM, 1000 nM and 2140 nM.
On the same counts, the results for `O=C(NCCCc1ccccc1)Nc1ccc(-c2nc(N3CCOCC3)c3cnn(C4CCN(Cc5ccccc5)CC4)c3n2)cc1` [Compound 506, 1-{4-[1-(1-benzylpiperidin-4-yl)-4-morpholin-4-yl-1H-pyrazolo[3,4-d]pyrimidin-6-yl]phenyl}-3-(3-phenylpropyl)urea] are greater than 60000 nM, 4500 nM and 7030 nM.
On the same counts, the results for `O=C(NCC1CC1)Nc1ccc(-c2nc(N3CCOCC3)c3cnn(C4CCN(Cc5ccccc5)CC4)c3n2)cc1` [Compound 508, 1-{4-[1-(1-benzylpiperidin-4-yl)-4-morpholin-4-yl-1H-pyrazolo[3,4-d]pyrimidin-6-yl]phenyl}-3-(cyclopropylmethyl)urea] are 3000 nM, 700 nM and 384 nM.
Regarding `C=CCNC(=O)Nc1ccc(-c2nc(N3CCOCC3)c3cnn(C4CCN(Cc5ccccc5)CC4)c3n2)cc1` [Compound 509, 1-allyl-3-{4-[1-(1-benzylpiperidin-4-yl)-4-morpholin-4-yl-1H-pyrazolo[3,4-d]pyrimidin-6-yl]phenyl}urea], the IC50 in the assay with breast line MDA468 (Homo sapiens, 72 h) is 1800 nM; in the assay on prostate line LNCap (Homo sapiens, LNCaP, 72 h), 250 nM; at PI3K (PI3Kα; read-out: PI3Kα IC50) it was 268 nM.
Take `NCCNC(=O)Nc1ccc(-c2nc(N3CCOCC3)c3cnn(C4CCN(Cc5ccccc5)CC4)c3n2)cc1` [Compound 512, 1-(2-aminoethyl)-3-{4-[1-(1-benzylpiperidin-4-yl)-4-morpholin-4-yl-1H-pyrazolo[3,4-d]pyrimidin-6-yl]phenyl}urea]: the IC50 with breast line MDA468 (Homo sapiens, 72 h) was 2700 nM; in the assay on prostate line LNCap (Homo sapiens, LNCaP, 72 h) it was 2000 nM; on PI3K (PI3Kα; read-out: PI3Kα IC50), 14 nM.
The corresponding values for `O=C(NCCCO)Nc1ccc(-c2nc(N3CCOCC3)c3cnn(C4CCN(Cc5ccccc5)CC4)c3n2)cc1` [Compound 514, 1-{4-[1-(1-benzylpiperidin-4-yl)-4-morpholin-4-yl-1H-pyrazolo[3,4-d]pyrimidin-6-yl]phenyl}-3-(3-hydroxypropyl)urea] are 650 nM, 80 nM and 364 nM.
The corresponding values for `COCCCNC(=O)Nc1ccc(-c2nc(N3CCOCC3)c3cnn(C4CCN(Cc5ccccc5)CC4)c3n2)cc1` [Compound 515, 1-{4-[1-(1-benzylpiperidin-4-yl)-4-morpholin-4-yl-1H-pyrazolo[3,4-d]pyrimidin-6-yl]phenyl}-3-(3-methoxypropyl)urea] are 3200 nM, 600 nM and 753 nM.
On the same counts, the results for `CN(C)CCCNC(=O)Nc1ccc(-c2nc(N3CCOCC3)c3cnn(C4CCN(Cc5ccccc5)CC4)c3n2)cc1` [Compound 516, 1-{4-[1-(1-benzylpiperidin-4-yl)-4-morpholin-4-yl-1H-pyrazolo[3,4-d]pyrimidin-6-yl]phenyl}-3-[3-(dimethylamino)propyl]urea] are 2000 nM, 650 nM and 158 nM.
Consider `O=CN1CCC(n2ncc3c(N4CCOCC4)nc(-c4ccc5[nH]ccc5c4)nc32)CC1` [Compound 518, 4-[6-(1H-indol-5-yl)-4-morpholin-4-yl-1H-pyrazolo[3,4-d]pyrimidin-1-yl]piperidine-1-carbaldehyde], for which the IC50 in the assay with breast line MDA468 (Homo sapiens, 72 h) amounted to 3000 nM; in the assay with prostate line LNCap (Homo sapiens, LNCaP, 72 h), 1000 nM; on PI3K (PI3Kα; read-out: PI3Kα IC50), 2800 nM.
On the same counts, the results for `COc1cccc(C(=O)Nc2ccc(-c3nc(N4CCOCC4)c4cnn(C5CCCCO5)c4n3)cc2)c1` (stereo not drawn) [Compound 519, 3-methoxy-N-{4-[4-morpholin-4-yl-1-(tetrahydro-2H-pyran-2-yl)-1H-pyrazolo[3,4-d]pyrimidin-6-yl]phenyl}benzamide] are greater than 60000 nM, 1950 nM and 8320 nM.
As to `CN(C)CC(=O)Nc1ccc(-c2nc(N3CCOCC3)c3cnn(C4CCCCO4)c3n2)cc1` (stereo not drawn) [Compound 521, N2,N2-dimethyl-N-{4-[4-morpholin-4-yl-1-(tetrahydro-2H-pyran-2-yl)-1H-pyrazolo[3,4-d]pyrimidin-6-yl]phenyl}glycinamide], the IC50 turned out to be 40000 nM in the assay with breast line MDA468 (Homo sapiens, 72 h); 12000 nM in the assay with prostate line LNCap (Homo sapiens, LNCaP, 72 h); 9000 nM on PI3K (PI3Kα; read-out: PI3Kα IC50).
For the compound `CN(C)c1ccc(CC(=O)Nc2ccc(-c3nc(N4CCOCC4)c4cnn(C5CCCCO5)c4n3)cc2)cc1` (stereo not drawn) [Compound 522, 2-[4-(dimethylamino)phenyl]-N-{4-[4-morpholin-4-yl-1-(tetrahydro-2H-pyran-2-yl)-1H-pyrazolo[3,4-d]pyrimidin-6-yl]phenyl}acetamide], the IC50 in the assay on breast line MDA468 (Homo sapiens, 72 h) is greater than 60000 nM; in the assay with prostate line LNCap (Homo sapiens, LNCaP, 72 h), 11000 nM; at PI3K (PI3Kα; read-out: PI3Kα IC50), 6470 nM.
For `O=C(Nc1ccc(-c2nc(N3CCOCC3)c3cn[nH]c3n2)cc1)c1cccnc1` [Compound 524, N-[4-(4-morpholin-4-yl-1H-pyrazolo[3,4-d]pyrimidin-6-yl)phenyl]nicotinamide], the IC50 came to 60000 nM in the assay with breast line MDA468 (Homo sapiens, 72 h); 7200 nM with prostate line LNCap (Homo sapiens, LNCaP, 72 h); 1170 nM on PI3K (PI3Kα; read-out: PI3Kα IC50).
Consider `COC(=O)Nc1ccc(-c2nc(N3CCOCC3)c3cn[nH]c3n2)cc1` [Compound 525, methyl [4-(4-morpholin-4-yl-1H-pyrazolo[3,4-d]pyrimidin-6-yl)phenyl]carbamate], for which the IC50 in the assay on breast line MDA468 (Homo sapiens, 72 h) came to 12000 nM; with prostate line LNCap (Homo sapiens, LNCaP, 72 h), 3000 nM; at PI3K (PI3Kα; read-out: PI3Kα IC50), 612 nM.
For `C=CC(=O)Nc1ccc(-c2nc(N3CCOCC3)c3cn[nH]c3n2)cc1` [Compound 526, N-[4-(4-morpholin-4-yl-1H-pyrazolo[3,4-d]pyrimidin-6-yl)phenyl]acrylamide], the IC50 with breast line MDA468 (Homo sapiens, 72 h) is 7000 nM; with prostate line LNCap (Homo sapiens, LNCaP, 72 h), 3400 nM; at PI3K (PI3Kα; read-out: PI3Kα IC50) it was 601 nM.
Take `CN(C)CC(=O)Nc1ccc(-c2nc(N3CCOCC3)c3cn[nH]c3n2)cc1` [Compound 527, N^2,N^2-dimethyl-N-[4-(4-morpholin-4-yl-1H-pyrazolo[3,4-d]pyrimidin-6-yl)phenyl]glycinamide]: the IC50 in the assay on breast line MDA468 (Homo sapiens, 72 h) turned out to be 18000 nM; in the assay with prostate line LNCap (Homo sapiens, LNCaP, 72 h) it was 7000 nM; on PI3K (PI3Kα; read-out: PI3Kα IC50), 2270 nM.
`NCC(=O)Nc1ccc(-c2nc(N3CCOCC3)c3cn[nH]c3n2)cc1` [Compound 528, N-[4-(4-morpholin-4-yl-1H-pyrazolo[3,4-d]pyrimidin-6-yl)phenyl]glycinamide]: the IC50 with breast line MDA468 (Homo sapiens, 72 h) is 11000 nM; in the assay on prostate line LNCap (Homo sapiens, LNCaP, 72 h), 9000 nM; on PI3K (PI3Kα; read-out: PI3Kα IC50) it was 128 nM.
The corresponding values for `CN1CCC(C(=O)Nc2ccc(-c3nc(N4CCOCC4)c4cn[nH]c4n3)cc2)CC1` [Compound 530, 1-methyl-N-[4-(4-morpholin-4-yl-1H-pyrazolo[3,4-d]pyrimidin-6-yl)phenyl]piperidine-4-carboxamide] are 22000 nM, 5300 nM and 885 nM.
